“And” between values parts separate entries of the source, which are not always exact repeats. Identical values can stand only once. Non-standard residues stand in square brackets, D forms with d. Residues, ends and D or L forms follow the SMILES beside them. No end group written: not given here. *: point of attachment. Palmitoyl = CCCCCCCCCCCCCCCC(=O)*; dOrn = NCCC[C@@H](N)C(=O)O
Columns and labels:
[1] = Cytotoxicity (resazurin) assay
Experimental: For the cytotoxicity (resazurin) assay, HEK293 cells were counted manually in a Neubauer haemocytometer and plated at a density of 4000 cells/well into each well of the 384-well plates containing the 25×(2 μl) concentrated compounds. The medium used was Dulbecco's modified eagle medium (DMEM) supplemented with 10% foetal bovine serum (FBS). Cells were incubated together with the compounds for 20 h at 37° C., 5% CO2. To measure cytotoxicity, 5 μl (equals 100 μM final) resazurin was added to each well after incubation, and incubated for further 3 h at 37° C. with 5% CO2.
After final incubation fluorescence intensity was measured as F ex 560/10 nm, em 590/10 nm (F560/590) using a Tecan M1000 Pro monochromator plate reader. […] The concentration dependent percentage cytotoxicity was fitted to a dose response function (using Pipeline Pilot) and CC50 values determined.

Hemolysis assay = format: cell-based; conditions: for HC50 at 1 h: human, washed erythrocytes from EDTA-blood, pH 7.4
Experimental: For the hemolysis assays EDTA-blood was centrifuged at 800×g for 10 min, and the plasma and buffy coat were removed. The erythrocytes were washed three times and resuspended in 5% PBS, pH 7.4. The cells were then incubated with end-over-end rotation for 1 h at 37° C. in the presence of different concentrations of peptides (0, 3, 10, 30, 60 μm). 0.1% Triton X-100 (Sigma-Aldrich) served as positive control. The samples were then centrifuged at 800×g for 10 min.
The absorbance of hemoglobin release was measured at 540 nm and is expressed as % of Triton X-100-induced hemolysis. These values of triplicates were plotted with Graph Pad Prism 4 as a dose response curve and the CC50 was determined.

S. aureus ATCC 6538 = experiment: CFU-assay, S. aureus-cidal activity; format: cell-based, Staphylococcus aureus
Experimental: Thus, within the present invention, the antimicrobial activity is generally measured in nutrient deficient 10 mM sodium phosphate buffer pH 5.5, containing 0.25% glucose, using the CFU-assay according to Steinberg and Lehrer, 1997 (supra), unless otherwise indicated. The CFU-assay allows determination of the minimal bactericidal concentration (MBC, e.g., MBC90 and MBC100; i.e. the concentration of compound required to achieve a specified reduction in bacterial cell number (microbial death or killing)).
Various peptides corresponding to repeat domains of hornerin (HR 1-11: HRNR 2606-2628; HR 1-17: HRNR 2656-2684 and HR 1-18: HRNR 2656-2677) were tested for P. aeruginosa ATCC 10145-cidal activity in 10 mM Na-phosphate buffer pH 5.5, containing 0.25% glucose by counting the numbers of colonies of surviving bacteria at serial, twofold dilutions from 300 μg/ml down to 19 ng/ml of each peptide (CFU-assay; Steinberg and Lehrer, 1997, Methods Mol. Biol. 78, 169-186).
Staphylococcus aureus is a major skin pathogen, which causes skin infections, in particular in atopic dermatitis. The sensitivity of S. aureus ATCC 6538 towards several CIDAMPs was assessed using the CFU-assay as above (see Example 1). HR 1-18, which lacks S. aureus.-bactericidal activity, is converted in a S. aureus-cidal peptide, when all His are replaced by Arg (HR 1-18 4H-4R; see Table 13 and FIG. 9). […] HR 1-18 4H-4R is rich in Ser and Arg and contains a single Leu residue. When this single Leu was replaced by Gly in S. aureus-cidal HR 1-18 4H-4R (forming HR 1-18 4H-4R/L-G), S. aureus-cidal activity was abolished at both pH 7.0 and pH 5.5 (see Table 13 and FIG. 9).

P. aeruginosa ATCC 10145 = experiment: CFU-assay, P. aeruginosa-cidal activity; format: cell-based, Pseudomonas aeruginosa; conditions: pH 5.0, 0.25% glucose

Compound	CC50 [1]	HC50 (Hemolysis assay)	other results
CCCCCCCCCCCCCCCC(=O)SC[C@H](NC(=O)[C@H](CCCNC(=N)N)NC(=O)CNC(=O)[C@H](CCCNC(=N)N)NC(=O)CNC(=O)[C@H](CCCNC(=N)N)NC(=O)CNC(=O)CNC(=O)[C@H](CCCNC(=N)N)NC(=O)CNC(=O)CNC(=O)[C@H](CCCNC(=N)N)NC(=O)[C@H](CCCNC(=N)N)NC(=O)CN)C(N)=O [C-Pal-GR13] (H-GRRGGRGGRGRGRC(Palmitoyl)-NH2)	> 32 µg/mL		
CCCCCCCCCCCCCCCC(=O)NCC(=O)N[C@H](CCCCN)C(=O)NCC(=O)N[C@H](CCCCN)C(=O)O [D-Pal-GK4, D-Pal-GKDGKD] (HELM PEPTIDE1{[CCCCCCCCCCCCCCCC(=O)[*:2]].G.[dK].G.[dK]}$$$$V2.0)	> 32 µg/mL	40 µg/mL	
CCCCCCCCCCCCCCCC(=O)NCC(=O)N[C@H](CCCN)C(=O)NCC(=O)N[C@H](CCCN)C(=O)O [D-Pal-GOrn4, D-Pal-GODGOD] (Palmitoyl-G[dOrn]G[dOrn]-OH)	> 32 µg/mL	55 µg/mL	
CCCCCCCCCCCCCCCC(=O)NCC(=O)N[C@H](CCCNC(=N)N)C(=O)NCC(=O)N[C@H](CCCNC(=N)N)C(=O)O [D-Pal-GR4, Pal-GRDGRD] (HELM PEPTIDE1{[CCCCCCCCCCCCCCCC(=O)[*:2]].G.[dR].G.[dR]}$$$$V2.0)	> 32 µg/mL	300 µg/mL	
CCCCCCCCCCCCCCCC(=O)NCC(=O)N[C@H](CCCNC(=N)N)C(=O)N[C@H](CCCNC(=N)N)C(=O)NCC(=O)NCC(=O)N[C@H](CCCNC(=N)N)C(=O)NCC(=O)NCC(=O)N[C@H](CCCNC(=N)N)C(=O)O [D-Pal-GR9] (HELM PEPTIDE1{[CCCCCCCCCCCCCCCC(=O)[*:2]].G.[dR].[dR].G.G.[dR].G.G.[dR]}$$$$V2.0)	> 32 µg/mL	> 100 µg/mL	
N=C(N)NCCC[C@H](NC(=O)[C@H](Cc1c[nH]cn1)NC(=O)[C@H](CO)NC(=O)[C@H](CCCNC(=N)N)NC(=O)[C@H](CCCNC(=N)N)NC(=O)[C@H](CS)NC(=O)[C@H](CCCNC(=N)N)NC(=O)[C@H](Cc1c[nH]cn1)NC(=O)[C@H](Cc1c[nH]cn1)NC(=O)[C@@H](N)CO)C(=O)N[C@@H](CS)C(=O)O [LCE3A50-60] (H-SHHRCRRSHRC-OH)	> 32 µg/mL		
N=C(N)NCCC[C@H](NC(=O)[C@H](CC(=O)O)NC(=O)[C@H](CS)NC(=O)[C@H](CO)NC(=O)[C@H](CC(N)=O)NC(=O)[C@H](CO)NC(=O)[C@H](CCCNC(=N)N)NC(=O)[C@H](CCC(N)=O)NC(=O)[C@H](CCCNC(=N)N)NC(=O)[C@H](CCCNC(=N)N)NC(=O)[C@H](CS)NC(=O)[C@H](CCC(N)=O)NC(=O)[C@H](Cc1c[nH]cn1)NC(=O)[C@H](CO)NC(=O)[C@H](CCCNC(=N)N)NC(=O)[C@H](Cc1ccccc1)NC(=O)[C@H](Cc1c[nH]cn1)NC(=O)[C@H](CCCNC(=N)N)NC(=O)[C@H](Cc1c[nH]cn1)NC(=O)[C@H](Cc1c[nH]cn1)NC(=O)[C@@H](N)CO)C(=O)O [LCE3C55-75] (H-SHHRHFRSHQCRRQRSNSCDR-OH)	> 32 µg/mL	> 300 µg/mL	
CCCCCCCCCCCCCC(=O)NCC(=O)N[C@@H](CCCNC(=N)N)C(=O)N[C@@H](Cc1c[nH]cn1)C(=O)NCC(=O)N[C@@H](CO)C(=O)NCC(=O)N[C@@H](CC(C)C)C(=O)NCC(=O)N[C@@H](Cc1c[nH]cn1)C(=O)N[C@@H](CO)C(=O)N[C@@H](CO)C(=O)N[C@@H](CO)C(=O)N[C@@H](Cc1c[nH]cn1)C(=O)NCC(=O)N[C@@H](CCC(N)=O)C(=O)N[C@@H](Cc1c[nH]cn1)C(=O)NCC(=O)N[C@@H](CO)C(=O)NCC(=O)N[C@@H](CO)C(=O)NCC(=O)N[C@@H](CCCNC(=N)N)C(=O)O [Myr-HR 1-18] (HELM PEPTIDE1{[CCCCCCCCCCCCCC(=O)[*:2]].G.R.H.G.S.G.L.G.H.S.S.S.H.G.Q.H.G.S.G.S.G.R}$$$$V2.0)	32 µg/mL	> 300 µg/mL	
CCCCCCCCCCCCCCCC(=O)NCC(=O)N[C@@H](CCCCN)C(=O)NCC(=O)N[C@@H](CCCCN)C(=O)O [Pal-GK4, Pal-GKGK] (HELM PEPTIDE1{[CCCCCCCCCCCCCCCC(=O)[*:2]].G.K.G.K}$$$$V2.0)	> 32 µg/mL	50 µg/mL	
CCCCCCCCCCCCCCCC(=O)NCC(=O)N[C@@H](CCCN)C(=O)NCC(=O)N[C@@H](CCCN)C(=O)O [Pal-GOrn4, Pal-GOGO] (HELM PEPTIDE1{[CCCCCCCCCCCCCCCC(=O)[*:2]].G.[Orn].G.[Orn]}$$$$V2.0)	> 32 µg/mL	80 µg/mL	
GRHGSGLGHSSSHGQHGSGSGR [HR 1-18]	> 32 µg/mL and > 15.2 µM	> 300 µg/mL	CC50/MBC90 (S.aureus) (S. aureus ATCC 6538; pH 5.5): No activity; HC50 at 1 h (Hemolysis assay): > 143 µM
GRRGGRGGRGRGR [GR13]	> 23.6 µM		HC50 at 1 h (Hemolysis assay): > 220 µM
GRRGSGGGRSSSRGGRGSGSGR (Modified peptide derived from human hornerin (HR 1-18 4H-4R/L-G))			MBC90 (P. aeruginosa ATCC 10145): 0.038 µg/mL; MBC100 (P. aeruginosa ATCC 10145): 0.15 µg/mL; MBC90 (S. aureus ATCC 6538; pH 5.5, 0.25% glucose): >300 µg/mL; MBC100 (S. aureus ATCC 6538; pH 5.5, 0.25% glucose): >300 µg/mL; S. aureus-cidal activity (in words) (S. aureus ATCC 6538; pH 7.0 and pH 5.5): abolished

— patent US11479587B2, “Cationic intrinsically disordered antimicrobial peptides” (priority 2016, dated 2022)
